Data on 6 compounds can be found in US5064826A, “Novel triazolo-pyrimidine derivatives” (priority 1989, dated 1991).

The term ED50 denotes the midpoint of the dose-response relation.

The nature of series [1]: Analgesic activity in Writhing test (W.t.) after p.o. administration. It counts as in vivo. As to conditions: for ED50: po, read-out: W.t. ED50. (Writhing tests count abdominal constrictions after an irritant is injected.)
Source text: (§1) Antidepressant activity of some of compounds of formulae Ia
(§2) and Ib shown against tetrabenazine ptosis (T.P.) and
(§3) analgesic activity in Writhing test (W.t.) after p.o. administration
TI = therapeutica1 index = LD50
Series [2] can be described thus: Antidepressant activity shown against tetrabenazine ptosis (T.P.) after p.o. administration. The format is in vivo. The following applies: for ED50: po, read-out: T.P. ED50; for TI (therapeutic index), T.P.: tetrabenazine ptosis, p.o. administration, TI = therapeutic index = LD50 (so in the source).
Source text: as §1, §2, §3
TI = therapeutica1 index = LD50

Each structure is given as a SMILES string.

With `CC(=O)Nc1ccc(O)cc1` [paracetamol, p(acetylamino)-phenol, reference compound], in series [1], the ED50 came to 421 mg/kg.
As to `O=c1c2c([nH]c3nc(N4CCOCC4)nn13)CCCS2` [Example 21, 2-Morpholino-5,7,8,9-tetrahydrothiopyrano[3,2-d]-1,2,4-triazolo[1,5-a]pyrimidine-5(10H)-one], in series [2], the ED50 turned out to be 5.2 mg/kg and the “TI (therapeutic index), T.P.” value is 385.
The corresponding values for `O=c1c2c([nH]c3nc(NC4CCCCC4)nn13)CCCS2` [Example 25, 2-Cyclohexylamino-5,7,8,9-tetrahydrothiopyrano[3,2-d]-1,2,4-triazolo[1,5-a]pyrimidine-5(10H)-one] are 22.5 mg/kg and 87.
As to `CC(C)(C)Nc1nc2[nH]c3c(c(=O)n2n1)SCCC3` [Example 26, 2-t-Butylamino-5,7,8,9-tetrahydrothiopyrano[3,2-d]-1,2,4-triazolo[1,5-a]pyrimidine-5(10H)-one], the “TI (therapeutic index), W.t.” value in series [1] (Writhing test, p.o. administration, TI = therapeutic index = LD50 (so in the source)) was determined as 5.6. For the same compound, the ED50 in series [1] amounted to 355 mg/kg.
As to `CN(C)CCC=C1c2ccccc2CCc2ccccc21` [amitriptyline, 5(3-dimethylaminopropylidene)dibenz/a,d/1,4-cycloheptadiene, reference compound], in series [2], the ED50 was 12 mg/kg and the “TI (therapeutic index), T.P.” value worked out at 19.
On to `CN(C)c1nc2[nH]c3c(c(=O)n2n1)SCCC3` [Example 19, 2-Dimethylamino-5,7,8,9-tetrahydrothiopyrano[3,2-d]-1,2,4-triazolo[1,5-a]pyrimidine-5(10H)-one], for which, in series [2], the ED50 was 2.7 mg/kg and the “TI (therapeutic index), T.P.” value was 748.
